The test system of assay [1] is LnCap, MiaPaCa, H226, and A549 tumors. The experiment in a line: In vivo assays: growth of tumor volume after irradiation of subcutaneous tumors in nude mice. Conditions: male nude mice; treated 30 minutes before 15 Gy X-rays; followed for 3 weeks. On the procedure:
LnCap, MiaPaCa, H226, and A549 cells are grown in culture. Cells are harvested using 0.25% trypsin, washed, suspended in Dulbecco's PBS, and counted. 1×10^6 cells are injected subcutaneously into the hind thigh of male nude mice. Tumors are grown to 250 mm^3 in ˜21 days. Tumors are measured with a caliper, and the tumor size is calculated by the formula a^2b/2, where a and b are the shorter and longer diameters of the tumor, respectively. When the tumors reach 250 mm^3, the mice are treated with insulin (5 or 40 μg/kg), IGF-1 (5 or 100 μg/kg) or insulin+glucose (5 g glucose/kg), or growth hormone (50 or 500 μg/kg), or saline control 30 minutes before radiation treatment. The mice are anesthetized immediately before radiation treatment, and then the tumor-bearing leg is irradiated with X-rays at 1.4 Gy/minute, receiving a dose of 15 Gy. The growth of tumor volume in the mice after irradiation is followed for 3 weeks.

Assay [2] deals with MiaPaCa, LnCap, H226 and A549 cells. Kind of assay: In vitro assays: surviving fraction (colony formation) of cancer cells after X-ray irradiation. In kind it is cell-based, human. Conditions: hormone added before 200 rads X-rays; for sensitization to radiation: exponential phase cells; for cell killing by radiation: plateau-phase cells, at least some concentrations and times. On the procedure: MiaPaCa (a human pancreatic cancer cell line), LnCap (a human prostate cancer cell line), H226 and A549 (two human lung cancer cell lines) are grown in monolayer cultures in McCoy's 5A medium containing 10% fetal bovine serum and buffered with 2.0 g/L sodium bicarbonate and 0.02 M Hepes, pH 7.4. The cells are at seeded at 6×10^4 cells per T30 flask. On day 3 the medium is changed. The cells are irradiated at either 4 days (exponential cells) or 7 days (plateau-phase cells). Twenty minutes before, 2 hours before, or immediately before irradiation, insulin (0.01, 0.1, or 1 μg/ml) or IGF-1 (3, 20, or 150 ng/ml) is added to the medium. Control cells have no added hormone. The cells are then irradiated with 200 rads X-rays. After irradiation, the cells are allowed to recover in the used medium for 60 minutes.
The cells are then typsinized and plated in fresh medium. The surviving fraction of a specific number of plated cells is determined by staining colonies with methylene blue after 7-10 days of growth.
Exponential-phase and plateau-phase cells are then treated with insulin and IGF-1 separately and together at their experimentally determined optimal concentrations immediately before, 15 minutes before, and 2 hours before irradiation with a range of radiation doses. Again, the cells are trypsinized and plated, and the percent surviving is determined.
Exponential- and plateau-phase cells are then treated with insulin at the optimal concentration in combination with 30 mM glucose.

The next assay deals with breast cancer cells. Conditions: tissue culture; methotrexate killing; cited from earlier work.
For assay [3] the following is noted: another study; cited from earlier work.
In another assay the test system is cancer cells. Conditions: Ciftci 2003; cited from earlier work.
Assay [4] relates to soluble IGF-1 binding proteins. Conditions: compared to native IGF-1; Francis 1992, Tomas 1993; cited from earlier work.

These results are taken from patent US20060258589A1, “Methods for enhancing radiation therapy” (IGF Oncology, LLC, priority 2004, published 2006).

As for growth hormone, in assay [1], the “effectiveness of radiation therapy (growth of tumor volume)” value (“effectiveness of radiation therapy” for short) is recorded as “enhance the effectiveness of radiation therapy”.
Turning to insulin, in assay [2], the sensitization to radiation entry is “sensitized to radiation” and the “cell killing by radiation” value was “increase cell killing by radiation”. Further, the “effectiveness of radiation therapy” value in assay [1] is given as “enhance the effectiveness of radiation therapy”. Besides, in the assay on breast cancer cells, the “enhancement of the killing of breast cancer cells” value was “up to 10,000 fold”. The “enhancement of uptake of methotrexate” value in assay [3] is 2 factor.
Turning to insulin-like growth factor-1 [IGF-1], in assay [2], the sensitization to radiation entry is listed as “sensitized to radiation” and the “cell killing by radiation” value is recorded as “increase cell killing by radiation”. Further, the “effectiveness of radiation therapy” value in assay [1] is listed as “enhance the effectiveness of radiation therapy”. Besides, the “proportion of cells in the G2 and M phases of the cell cycle” value with cancer cells is “moves a greater proportion of the cells into the G2 and M phases”.

B1: LONG-R3-IGF-1: variant IGF-1 with reduced binding affinity for the soluble IGF-1 binding proteins (SEQ ID NO:1) (protein)
chain: MFPAMPLSSLFVNGPRTLCGAELVDALQFVCGDRGFYFNKPTGYSSSRRAPQTGIVDECCFRSCDLRRLEMYCAPLKPAKSA
modifications: LONG-R3-IGF-1 synthetic variant of IGF-1
For B1, the “binding affinity for the soluble IGF-1 binding proteins” value in assay [4] was “reduced binding affinity”.
